The source of these data is EP3807241B1, “IMPROVEMENTS IN OR RELATING TO ORGANIC COMPOUNDS” (Givaudan SA, priority 2018, dated 2019).

Read-outs that look alike come from different tables or passages of the source.

In series [1] the test system is plated rat hepatocytes. The class given is in vitro ADME. The method, then:
Short-term monolayer cultures of cryopreserved primary hepatocytes from rat were prepared in collagen coated 48-well plates to perform metabolic assays in a kinetic manner for up to 22 h.
Palatable primary male rat hepatocytes (Sprague-Dawley, Grade P pooled cryopreserved hepatocytes, for plated assays) and supplements were purchased from Biopredic International (Saint Grégoire, France). WEM (with Phenol Red, with GlutaMAX™, without HEPES) was purchased from Gibco™ (ThermoFisherScientific).
Cells were thawed following the supplier's protocol and seeded at a density of 450,000 cells/mL in 0.25 mL seeding medium (WEM supplemented with fetal bovine serum, Dexamethasone, penicillin-streptomycin, insulin, GlutaMAX™ and HEPES) using 48-well plates which were coated with collagen (Collagen I Rat Protein, Tail; Gibco™, ThermoFisherScientific) and incubated for 4-5 h to facilitate attachment. Then, the medium was changed to culturing medium (WEM supplemented with penicillin, streptomycin, insulin, hydrocortisone without serum) to prevent detachment of cells.
Test chemicals were dissolved in methanol (80-90% methanol) and directly added with the culture medium (0.8-0.9% final methanol concentration). For structure-activity studies, final concentration of test chemicals was 50 µM or 5 µM. Cells were incubated for 0.5-22 h in the presence of test chemicals. To stop the reactions, the culture medium was removed and 0.5 M citric acid (pH 2.0; 60 µL) and cold acetonitrile (60 µL) containing 2 µM decanoyl CoA as internal standard were added to each well. The attached cells were removed and disrupted by scraping the well with a pipette tip and by pipetting up and down several times, transferred in 1.5 mL tubes and frozen at -80°C. The cell lysates were defrozen, centrifuged (21,000 x g, 5 min, RT), and the supernatant was diluted with 1.36 mL Tris-buffer (4 mM) containing KCI (6 mM), MgCl2 (0.3 mM) and n-heptadecanoyl CoA as internal standard (0.2 µM). Samples were neutralized by addition of NaOH (42 µL of 1 M NaOH) and loaded onto solid phase extraction cartridges (OASIS HLB µEIution plate, Waters). Columns were washed with 200 µL of ammonium solution (1 M), and samples eluted sequentially with 50 µL acetonitrile and 50 µL water.
CoA conjugates were analyzed with high resolution LC-MS (LC-HRMS) on a Dionex UltiMate 3000 RS HPLC system coupled to a Q-Exactive orbitrap mass spectrometer (Thermo Scientific, Reinach, Switzerland) with electrospray ionization (ESI) in both positive and negative ionization mode. For liquid chromatography separation an Agilent Zorbax 300Extend-C18 column with dimensions 2.1 mm x 50 mm and particle size of 3.5 µm with a 2.1 mm x 10 mm pre-column of the same material was used. The flow rate was 0.4 mL/min. Eluent A consists of water containing 0.0025% ammonia (pH around 9.8) and eluent B consists of acetonitrile containing 0.0025% ammonia. A linear gradient was run from 95% eluent A (hold for 1 min) to 100% eluent B within 6 min (hold for 1 min), back to 95% eluent A within 0.5 min followed by 1.5 min equilibration time. The injection volume of the sample was 10 µl. The mass resolution of the HR-MS spectra was set to 70,000. The mass accuracy was <5ppm. […] Ion source parameters adjusted were as follows: sheath gas flow (30 arbitrary unit), auxiliary gas flow (10 arbitrary unit), capillary temperature (270°C), and source voltage (4kV in positive mode, -3kV in negative mode). Fragmentation was obtained from dissociation in an octopole collision cell using higher energy collision dissociation settings at 35 and 45 (arbitrary unit). The mass scan range was set from 120 to 1800 m/z.
Calibration standards were prepared with CoA, acetyl-CoA, benzoyl-CoA, TBBA-CoA, and octanoyl-CoA to determine the concentrations of CoA conjugates. Decanoyl-CoA and heptadecanoyl-CoA were used as internal standards. The limit of detection with this method is 0.005 µM for CoA conjugates. […]

The nature of series [2]: GC odor threshold.
In series [3] the test system is primates. Conditions: cited from earlier work.
Series [4] relates to reproductive organs of male rats. The settings on record: rat, in vivo; cited from earlier work.
In series [5] the test system is reproductive organs of male dogs. Conditions: dog, in vivo; cited from earlier work.
Series [6] concerns mice. The settings on record: mouse, in vivo; cited from earlier work.
The subject of series [7] is guinea-pigs. The settings on record: guinea pig, in vivo; cited from earlier work.
The test system of series [8] is primary rat hepatocytes. Conditions: TBBA treatment; cited from earlier work.
The mark [9] stands for this setting: male, Sprague-Dawley, rat, 0.5 h, 50 µM.
Setting [10] is: male, Sprague-Dawley, rat, 4 h, 50 µM.
Setting [11] is: male, Sprague-Dawley, rat, 22 h, 50 µM.

For the molecule `CC(C)CC1=CCC(CCC=O)C(C)C1` (stereo not drawn) [3-(4-isobutyl-6-methylcyclohex-3-en-1-yl)propanal], in series [1] (setting [9]), the “CoA Conjugates Detected in Plated Rat Hepatocytes (Total Amount)” value (“CoA Conjugates Detected” for short) is listed as 86 % of TBBA-CoA ex BMHCA, the “CoA conjugate detected: 3-(4-isobutyl-2-methylcyclohexyl)propanoic acid-CoA” value is on record as 3 % of TBBA-CoA ex BMHCA, the “CoA conjugate detected: 3-(4-isobutyl-6-methylcyclohex-3-en-1-yl)propanoic acid” value is given as 58 % of TBBA-CoA ex BMHCA and the “CoA conjugate detected: 3-(4-isobutyl-6-methylcyclohexa-1,3-dien-1-yl)propanoic acid-CoA” value is listed as 21 % of TBBA-CoA ex BMHCA. Besides, the “CoA conjugate detected: 4-isobutyl-6-methylcyclohex-3-ene-1-carboxylic acid-CoA” value in series [1] (setting [9]) was 4 % of TBBA-CoA ex BMHCA. For the same molecule, in series [1] (setting [10]), the “CoA Conjugates Detected” value is given as 31 % of TBBA-CoA ex BMHCA, the “CoA conjugate detected: 3-(4-isobutyl-6-methylcyclohex-3-en-1-yl)propanoic acid” value is 19 % of TBBA-CoA ex BMHCA, the “CoA conjugate detected: 3-(4-isobutyl-6-methylcyclohexa-1,3-dien-1-yl)propanoic acid-CoA” value is 8 % of TBBA-CoA ex BMHCA and the “CoA conjugate detected: 4-isobutyl-6-methylcyclohex-3-ene-1-carboxylic acid-CoA” value is recorded as 4 % of TBBA-CoA ex BMHCA.

Turning to `CC(C)CC1=CCC(CCC=O)CC1` (stereo not drawn) [3-(4-isobutylcyclohex-3-en-1-yl)propanal], in series [1] (male, Sprague-Dawley, rat, 50 µM), the main conjugate detected is recorded as 4-isobutylbenzoic acid-CoA. In series [1] (setting [9]), the “CoA Conjugates Detected” value is on record as 74 % of TBBA-CoA ex BMHCA, the “CoA conjugate detected: 3-(4-isobutylcyclohex-3-en-1-yl)propanoic acid-CoA” value is 19 % of TBBA-CoA ex BMHCA, the “CoA conjugate detected: 3-(4-isobutylcyclohexa-1,3-dien-1-yl)propanoic acid-CoA” value is 12 % of TBBA-CoA ex BMHCA and the “CoA conjugate detected: 4-isobutylcyclohex-3-ene-1-carboxylic acid-CoA” value is listed as 23 % of TBBA-CoA ex BMHCA. Further, the “CoA conjugate detected: 4-isobutylcyclohexa-1,3-diene-1-carboxylic acid-CoA” value in series [1] (setting [9]) is on record as 8 % of TBBA-CoA ex BMHCA. Besides, in series [1] (setting [10]), the “CoA Conjugates Detected” value is on record as 45 % of TBBA-CoA ex BMHCA, the “CoA conjugate detected: 3-(4-isobutylcyclohex-3-en-1-yl)propanoic acid-CoA” value is listed as 2 % of TBBA-CoA ex BMHCA, the “CoA conjugate detected: 3-(4-isobutylcyclohexa-1,3-dien-1-yl)propanoic acid-CoA” value is recorded as 2 % of TBBA-CoA ex BMHCA and the “CoA conjugate detected: 4-isobutylcyclohex-3-ene-1-carboxylic acid-CoA” value is recorded as 10 % of TBBA-CoA ex BMHCA. Moreover, in series [1] (setting [10]), the “CoA conjugate detected: 4-isobutylcyclohexa-1,3-diene-1-carboxylic acid-CoA” value is 8 % of TBBA-CoA ex BMHCA. For the same molecule, in series [1] (setting [11]), the “CoA Conjugates Detected” value was 29 % of TBBA-CoA ex BMHCA, the “CoA conjugate detected: 3-(4-isobutylcyclohex-3-en-1-yl)propanoic acid-CoA” value is on record as 3 % of TBBA-CoA ex BMHCA and the “CoA conjugate detected: 4-isobutylcyclohex-3-ene-1-carboxylic acid-CoA” value is 5 % of TBBA-CoA ex BMHCA.

Regarding `CC1=C(CCC=O)CCC(C(C)C)C1` (stereo not drawn) [3-(4-isopropyl-2-methylcyclo-hex-1-en-1-yl)propanal], the “accumulation of CoA-conjugates (in words)” value in series [1] was “significantly reduced accumulation”. In series [1] (setting [9]), the “CoA Conjugates Detected” value was 62 % of TBBA-CoA ex BMHCA, the “CoA conjugate detected: 3-(4-isopropyl-2-methylcyclohex-1-en-1-yl)propanoic acid-CoA” value is recorded as 22 % of TBBA-CoA ex BMHCA, the “CoA conjugate detected: 3-(4-isopropyl-2-methylcyclohexa-1,5-dien-1-yl)propanoic acid-CoA” value is given as 34 % of TBBA-CoA ex BMHCA and the “CoA conjugate detected: 3-(4-isopropyl-2-methylphenyl)propanoic acid-CoA” value was 2 % of TBBA-CoA ex BMHCA. The “CoA conjugate detected: 4-isopropyl-2-methylcyclohex-1-ene-1-carboxylic acid-CoA” value in series [1] (setting [9]) is recorded as 4 % of TBBA-CoA ex BMHCA. Moreover, in series [1] (setting [10]), the “CoA Conjugates Detected” value is on record as 28 % of TBBA-CoA ex BMHCA, the “CoA conjugate detected: 3-(4-isopropyl-2-methylcyclohex-1-en-1-yl)propanoic acid-CoA” value is on record as 10 % of TBBA-CoA ex BMHCA, the “CoA conjugate detected: 3-(4-isopropyl-2-methylcyclohexa-1,5-dien-1-yl)propanoic acid-CoA” value is recorded as 13 % of TBBA-CoA ex BMHCA and the “CoA conjugate detected: 3-(4-isopropyl-2-methylphenyl)propanoic acid-CoA” value is listed as 2 % of TBBA-CoA ex BMHCA. Besides, the “CoA conjugate detected: 4-isopropyl-2-methylcyclohex-1-ene-1-carboxylic acid-CoA” value in series [1] (setting [10]) is listed as 3 % of TBBA-CoA ex BMHCA. For the same molecule, in series [1] (setting [11]), the “CoA Conjugates Detected” value is listed as 9 % of TBBA-CoA ex BMHCA, the “CoA conjugate detected: 3-(4-isopropyl-2-methylcyclohex-1-en-1-yl)propanoic acid-CoA” value was 3 % of TBBA-CoA ex BMHCA, the “CoA conjugate detected: 3-(4-isopropyl-2-methylcyclohexa-1,5-dien-1-yl)propanoic acid-CoA” value was 3 % of TBBA-CoA ex BMHCA and the “CoA conjugate detected: 4-isopropyl-2-methylcyclohex-1-ene-1-carboxylic acid-CoA” value is on record as 3 % of TBBA-CoA ex BMHCA. Besides, in series [2], the “GC Odor Threshold” value was 0.022 ng/L.

For the molecule `CC(C)C1CC=C(CCC=O)CC1` (stereo not drawn) [3-(4-isopropylcyclohex-1-en-1-yl)propanal], the “accumulation of CoA-conjugates (in words)” value in series [1] is on record as “substantial accumulation”. Also, in series [1] (setting [9]), the “CoA Conjugates Detected” value was 124 % of TBBA-CoA ex BMHCA, the “CoA conjugate detected: 3-(4-isopropylcyclohex-1-en-1-yl)propanoic acid-CoA” value is given as 53 % of TBBA-CoA ex BMHCA, the “CoA conjugate detected: 3-(4-isopropylcyclohexa-1 ,5-dien-1-yl)propanoic acid-CoA” value is reported as 36 % of TBBA-CoA ex BMHCA and the “CoA conjugate detected: 4-isopropylcyclohex-1-ene-1-carboxylic acid-CoA” value is listed as 23 % of TBBA-CoA ex BMHCA. For the same molecule, the “CoA conjugate detected: 4-isopropylcyclohexane-1-carboxylic acid-CoA” value in series [1] (setting [9]) is 12 % of TBBA-CoA ex BMHCA. For the same molecule, in series [1] (setting [10]), the “CoA Conjugates Detected” value is recorded as 79 % of TBBA-CoA ex BMHCA, the “CoA conjugate detected: 3-(4-isopropylcyclohex-1-en-1-yl)propanoic acid-CoA” value is 26 % of TBBA-CoA ex BMHCA, the “CoA conjugate detected: 3-(4-isopropylcyclohexa-1 ,5-dien-1-yl)propanoic acid-CoA” value is 17 % of TBBA-CoA ex BMHCA and the “CoA conjugate detected: 4-isopropylcyclohex-1-ene-1-carboxylic acid-CoA” value is on record as 26 % of TBBA-CoA ex BMHCA. Moreover, in series [1] (setting [10]), the “CoA conjugate detected: 4-isopropylcyclohexane-1-carboxylic acid-CoA” value is 10 % of TBBA-CoA ex BMHCA. In addition, in series [1] (setting [11]), the “CoA Conjugates Detected” value is on record as 31 % of TBBA-CoA ex BMHCA, the “CoA conjugate detected: 4-isopropylcyclohex-1-ene-1-carboxylic acid-CoA” value is reported as 24 % of TBBA-CoA ex BMHCA and the “CoA conjugate detected: 4-isopropylcyclohexane-1-carboxylic acid-CoA” value was 7 % of TBBA-CoA ex BMHCA.

With `CC(C=O)Cc1ccc(C(C)(C)C)cc1` (stereo not drawn) [BMHCA, 3-(4-tert-butylphenyl)-2-methylpropanal], the “CoA Conjugates Detected” value in series [1] (setting [9]), in series [1] (setting [10]) and in series [1] (setting [11]) was 100 % of TBBA-CoA ex BMHCA in each case. Further, the toxic effects entry in series [3], in series [6] and in series [7] was “No effects” in each case. Moreover, the “toxic effects on the reproductive organs” value in series [4] and in series [5] was “toxic effects” each time.

For `CC(C)(C)c1ccc(C(=O)O)cc1` [TBBA, 4-(tert-butyl)benzoic acid], in series [1] (male, Sprague-Dawley, rat), the “p-tert-butyl-benzoyl-CoA accumulates to stable levels within” value was in the range of 0.5 to 4 h. For the same molecule, the “CoA, acetyl-CoA and citrate levels” value in series [8] is on record as “decreased”.
